Laboratory results published in the NIST ThermoML archive (doi:10.1007/s10765-012-1371-1).

Assay: xn = mol fraction of the nth substance listed
Details: 101 kPa, Liquid

CCCCOCC [butyl ethyl ether] + CCCCCl
viscosity [mPa·s]
Details | 283.15 K | 288.15 K | 293.15 K | 298.15 K | 303.15 K | 308.15 K | 313.15 K
x2 = 0 | 0.4796 | 0.4509 | 0.4242 | 0.399 | 0.3756 | 0.356 | 0.3416
x2 = 0.0515 | 0.4815 | 0.4523 | 0.4254 | 0.4002 | 0.3771 | 0.3576 | 0.3426
x2 = 0.1016 | 0.4832 | 0.4536 | 0.4265 | 0.4014 | 0.3785 | 0.359 | 0.3435
x2 = 0.2008 | 0.4862 | 0.4561 | 0.4286 | 0.4036 | 0.3812 | 0.3618 | 0.3452
x2 = 0.3003 | 0.489 | 0.4583 | 0.4307 | 0.4058 | 0.3839 | 0.365 | 0.3473
x2 = 0.4002 | 0.4914 | 0.4604 | 0.4326 | 0.408 | 0.3868 | 0.368 | 0.3493
x2 = 0.5014 | 0.4934 | 0.4623 | 0.4345 | 0.4102 | 0.3895 | 0.3712 | 0.3514
x2 = 0.6023 | 0.4951 | 0.4641 | 0.4364 | 0.4123 | 0.3925 | 0.3744 | 0.3537
x2 = 0.7003 | 0.4965 | 0.4657 | 0.4381 | 0.4145 | 0.3954 | 0.3777 | 0.3559
x2 = 0.8004 | 0.4977 | 0.4672 | 0.4398 | 0.4167 | 0.3985 | 0.381 | 0.3585
x2 = 0.9006 | 0.4986 | 0.4687 | 0.4416 | 0.4191 | 0.4016 | 0.3846 | 0.3612
x2 = 0.9502 | 0.4989 | 0.4694 | 0.4424 | 0.4201 | 0.4033 | 0.3866 | 0.3627
